Source: the CheMixHub ionic liquid set

Experiment: xn = mol fraction of the nth substance listed

CCCC[N+](CCCC)(CCCC)CCCC.O=[N+]([O-])[O-] + CCCCCCCCCCCCOS(=O)(=O)[O-].[Na+] + O
viscosity [mPa·s], 100 kPa
Conditions	x2 = 1.81e-06, x1 = 0.0001802	x2 = 3.61e-06, x1 = 0.0001802	x2 = 5.42e-06, x1 = 0.0001802	x2 = 7.23e-06, x1 = 0.0001802	x2 = 9.04e-06, x1 = 0.0001802	x2 = 1.084e-05, x1 = 0.0001802	x2 = 1.265e-05, x1 = 0.0001802	x2 = 1.446e-05, x1 = 0.0001802	x2 = 1.626e-05, x1 = 0.0001802	x2 = 1.807e-05, x1 = 0.0001802
293.15 K	1.012	1.013	1.014	1.014	1.015	1.016	1.017	1.018	1.018	1.018
298.15 K	0.898	0.9	0.901	0.902	0.902	0.903	0.903	0.903	0.904	0.904
303.15 K	0.797	0.798	0.798	0.8	0.8	0.801	0.801	0.801	0.801	0.801
308.15 K	0.709	0.71	0.712	0.713	0.713	0.713	0.713	0.714	0.714	0.714
313.15 K	0.643	0.644	0.644	0.644	0.645	0.645	0.645	0.645	0.645	0.646
318.15 K	0.597	0.597	0.597	0.598	0.598	0.598	0.598	0.598	0.599	0.599

Oc1cccc(O)c1O + CCCCCCCCCCCC[N+](C)(C)C.[Br-]
101.3 kPa, x2 = 0.333
Conditions	electrical conductivity [S/m]	viscosity [mPa·s]
293.15 K	0.00471	–
298.15 K	0.00821	–
333.15 K	0.14	400

CCCC[N+](CCCC)(CCCC)CCCC.O=[N+]([O-])[O-] + CCCCCCCCCCCC[N+](C)(C)C.[Br-] + O
viscosity [mPa·s], 100 kPa
Conditions	x2 = 5.421e-05, x1 = 0.0001802	x2 = 0.0001084, x1 = 0.0001801	x2 = 0.0001626, x1 = 0.0001801	x2 = 0.0002168, x1 = 0.0001801	x2 = 0.000271, x1 = 0.0001801	x2 = 0.0003252, x1 = 0.0001801	x2 = 0.0003794, x1 = 0.0001801	x2 = 0.0004335, x1 = 0.0001801	x2 = 0.0004877, x1 = 0.0001801	x2 = 0.0005418, x1 = 0.0001801
293.15 K	1.042	1.043	1.045	1.047	1.048	1.048	1.049	1.049	1.049	1.049
298.15 K	0.924	0.926	0.927	0.928	0.928	0.929	0.929	0.929	0.93	0.93
303.15 K	0.821	0.822	0.822	0.824	0.825	0.825	0.825	0.825	0.826	0.826
308.15 K	0.731	0.732	0.735	0.735	0.735	0.736	0.736	0.736	0.737	0.737
313.15 K	0.664	0.664	0.665	0.665	0.665	0.666	0.666	0.666	0.666	0.667
318.15 K	0.617	0.617	0.617	0.618	0.618	0.618	0.618	0.618	0.619	0.619

N[C@@H](Cc1c[nH]cn1)C(=O)O + CCCCCCCCCCCC[N+](C)(C)C.[Br-] + O
viscosity [mPa·s], 101 kPa
Conditions	293.15 K	298.15 K	303.15 K	308.15 K	313.15 K
x1 = 0.0001801, x2 = 0.0001083	1.03	0.904	0.816	0.738	0.668
x1 = 0.0001801, x2 = 0.0001624	1.033	0.908	0.816	0.741	0.669
x1 = 0.0001801, x2 = 0.0002165	1.035	0.909	0.821	0.745	0.67
x1 = 0.0001801, x2 = 0.0002706	1.038	0.918	0.823	0.748	0.672
x1 = 0.0001801, x2 = 0.0003247	1.043	0.925	0.827	0.751	0.674
x1 = 0.0001801, x2 = 0.0003788	1.048	0.927	0.839	0.753	0.676
x1 = 0.0001801, x2 = 0.0004329	1.056	0.931	0.843	0.756	0.68
x1 = 0.0001801, x2 = 0.000487	1.06	0.935	0.849	0.758	0.685
x1 = 0.0001801, x2 = 0.000541	1.062	0.935	0.851	0.76	0.689
x1 = 0.0001802, x2 = 5.413e-05	1.027	0.901	0.815	0.736	0.667
x1 = 0.0008997, x2 = 0.000544	1.041	0.906	0.823	0.737	0.651
x1 = 0.0008998, x2 = 0.0003809	1.032	0.891	0.808	0.728	0.646
x1 = 0.0008998, x2 = 0.0004352	1.035	0.894	0.812	0.732	0.647
x1 = 0.0008998, x2 = 0.0004896	1.038	0.9	0.818	0.734	0.649
x1 = 0.0008999, x2 = 0.0002721	1.029	0.885	0.803	0.724	0.644
x1 = 0.0008999, x2 = 0.0003265	1.03	0.888	0.806	0.727	0.645
x1 = 0.0009, x2 = 0.0001633	1.025	0.879	0.8	0.722	0.641
x1 = 0.0009, x2 = 0.0002177	1.027	0.881	0.802	0.722	0.643
x1 = 0.0009001, x2 = 5.443e-05	1.02	0.874	0.796	0.721	0.64
x1 = 0.0009001, x2 = 0.0001089	1.022	0.876	0.799	0.721	0.64
x1 = 0.001798, x2 = 0.0001644	1.065	0.915	0.85	0.756	0.685
x1 = 0.001798, x2 = 0.0002191	1.067	0.916	0.854	0.759	0.688
x1 = 0.001798, x2 = 0.0002739	1.068	0.919	0.858	0.76	0.691
x1 = 0.001798, x2 = 0.0003287	1.07	0.92	0.862	0.764	0.693
x1 = 0.001798, x2 = 0.0003835	1.072	0.923	0.867	0.771	0.696
x1 = 0.001798, x2 = 0.0004382	1.079	0.927	0.87	0.776	0.701
x1 = 0.001798, x2 = 0.000493	1.083	0.931	0.876	0.781	0.706
x1 = 0.001798, x2 = 0.0005477	1.089	0.939	0.881	0.786	0.709
x1 = 0.001799, x2 = 5.48e-05	1.061	0.908	0.842	0.751	0.68
x1 = 0.001799, x2 = 0.0001096	1.064	0.912	0.846	0.755	0.683

CCCCCCC(O)CO (stereo not drawn) + CCCCCCCC[N+](CCCCCCCC)(CCCCCCCC)CCCCCCCC.[Br-] + [Cl-].[Cl-].[Co+2]
Conditions	viscosity [mPa·s]
296.1 K, 101.3 kPa, x2 = 0.4, x3 = 0.2	27000

CC(=O)N(C)C + CCCC[n+]1ccn(C)c1.F[B-](F)(F)F
viscosity [mPa·s], 101 kPa
Conditions	293.15 K	298.15 K	303.15 K	308.15 K	313.15 K	318.15 K	323.15 K
x1 = 1	–	–	–	–	0.778	–	–
x2 = 0	1.02	0.94	0.87	0.82	0.78	0.74	0.72
